Assay results reported in US8716303B2, “N-(hetero)aryl-pyrrolidine derivatives of pyrazol-4-yl-pyrrolo[2,3-d]pyrimidines and pyrrol-3-yl-pyrrolo[2,3-d]pyrimidines as janus kinase inhibitors” (Incyte Corporation, priority 2009, dated 2014).
pIC50: −log10 of the molar value. Structures can show the parent of a compound that is named as a salt.

Columns and labels:
Jak2 (a.a. 828-1132) = target: T1, Jak2 (a.a. 828-1132) (Homo sapiens, UniProt O60674); assay: In vitro JAK kinase assay (HTRF, phosphorylation of a biotinylated peptide), JAK2, reported as JAK2/JAK1 ratio; format: biochemical
T1 construct: Jak2 (a.a. 828-1132); His tag (N); made in house; host or cells: insect cells (baculovirus)

[1] = target: T2, human JAK1 (a.a. 837-1142) (Homo sapiens, UniProt P23458); assay: In vitro JAK kinase assay (HTRF, phosphorylation of a biotinylated peptide), JAK1; format: biochemical
T2 construct: human JAK1 (a.a. 837-1142); His tag (N); made in house; host or cells: insect cells (baculovirus)
Summary of the method: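 His-tagged catalytic domains (JAK1 a.a. 837-1142, JAK2 a.a. 828-1132) from insect cells phosphorylate 500 nM biotinylated peptide in 50 mM Tris pH 7.8, 100 mM NaCl, 5 mM DTT; ATP at Km (90 μM JAK1, 30 μM JAK2) or 1 mM, as indicated. 1 h at RT; EDTA stop, HTRF readout; IC50s.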

T1 sequence (O60674 828-1132): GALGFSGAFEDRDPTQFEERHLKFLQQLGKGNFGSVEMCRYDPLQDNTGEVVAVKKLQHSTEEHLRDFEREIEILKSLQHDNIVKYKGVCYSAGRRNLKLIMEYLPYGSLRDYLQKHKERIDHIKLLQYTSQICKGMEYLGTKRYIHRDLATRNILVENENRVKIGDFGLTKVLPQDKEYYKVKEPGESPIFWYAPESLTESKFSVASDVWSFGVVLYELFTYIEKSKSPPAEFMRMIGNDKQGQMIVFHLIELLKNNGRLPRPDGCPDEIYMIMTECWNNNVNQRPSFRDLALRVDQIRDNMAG
T2 sequence (P23458 849-1154): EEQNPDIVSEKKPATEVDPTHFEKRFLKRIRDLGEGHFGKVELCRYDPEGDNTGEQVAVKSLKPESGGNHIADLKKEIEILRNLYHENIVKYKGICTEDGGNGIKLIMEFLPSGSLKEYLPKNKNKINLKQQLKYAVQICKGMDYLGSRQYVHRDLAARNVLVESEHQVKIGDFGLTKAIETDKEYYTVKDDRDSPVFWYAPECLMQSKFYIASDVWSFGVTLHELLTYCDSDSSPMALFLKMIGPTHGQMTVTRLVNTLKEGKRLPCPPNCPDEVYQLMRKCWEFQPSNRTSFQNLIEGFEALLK

JAK2/JAK1 IC50 ratio (Jak2 (a.a. 828-1132); Assay Conditions 1 mM ATP) | pIC50 ([1]; Assay Conditions 1 mM ATP) | JAK2/JAK1 IC50 ratio (Jak2 (a.a. 828-1132); Assay Conditions Km (ATP 90 μM for Jak1, 30 μM for Jak2)) | pIC50 ([1]; Assay Conditions Km (ATP 90 μM for Jak1)) | Compound
>13.3 | > 7.30 |  |  | N#CCC(C1CCN(c2ncc3ccoc3c2C#N)C1)n1cc(-c2ncnc3[nH]ccc23)cn1 (single isomer, unassigned) [Example 169, 6-(3-{2-cyano-1-[4-(7H-pyrrolo[2,3-d]pyrimidin-4-yl)-1H-pyrazol-1-yl]ethyl}pyrrolidin-1-yl)furo[3,2-c]pyridine-7-carbonitrile]
5.3 | > 7.30 |  |  | FCC([C@H]1CCN(c2nc3c(cc2F)CCS3)C1)n1cc(-c2ncnc3[nH]ccc23)cn1 (stereo partly drawn) [Example 85, 4-(1-{2-fluoro-1-[(3S)-1-(5-fluoro-2,3-dihydrothieno[2,3-b]pyridin-6-yl)pyrrolidin-3-yl]ethyl}-1H-pyrazol-4-yl)-7H-pyrrolo[2,3-d]pyrimidine bis(trifluoroacetate)]
20.0 | > 7.30 |  |  | N#CC[C@@H]([C@H]1CCN(c2scc(C#N)c2C#N)C1)n1cc(-c2ncnc3[nH]ccc23)cn1 [Example 79, 2-((3S)-3-{(1S)-2-cyano-1-[4-(7H-pyrrolo[2,3-d]pyrimidin-4-yl)-1H-pyrazol-1-yl]ethyl}pyrrolidin-1-yl)thiophene-3,4-dicarbonitrile]
>10 | > 7.30 |  |  | N#CC[C@@H]([C@H]1CCN(c2cccc(C(F)(F)F)c2C#N)C1)n1cc(-c2ncnc3[nH]ccc23)cn1 [Example 56, 2-((3S)-3-{(1S)-2-cyano-1-[4-(7H-pyrrolo[2,3-d]pyrimidin-4-yl)-1H-pyrazol-1-yl]ethyl}pyrrolidin-1-yl)-6-(trifluoromethyl)benzonitrile trifluoroacetate salt]
>4.5 | > 7.30 |  |  | C#Cc1cnc(N2CC[C@H]([C@H](CC#N)n3cc(-c4ncnc5[nH]ccc45)cn3)C2)c(C#N)n1 [Example 143, 3-((3S)-3-{(1S)-2-cyano-1-[4-(7H-pyrrolo[2,3-d]pyrimidin-4-yl)-1H-pyrazol-1-yl]ethyl}pyrrolidin-1-yl)-6-ethynylpyrazine-2-carbonitrile trifluoroacetate]
7.1 | > 7.30 |  |  | N#CC[C@@H]([C@H]1CCN(c2ncccc2C#N)C1)n1cc(-c2ncnc3[nH]ccc23)cn1 [Example 62, 2-((3S)-3-{(1S)-2-cyano-1-[4-(7H-pyrrolo[2,3-d]pyrimidin-4-yl)-1H-pyrazol-1-yl]ethyl}pyrrolidin-1-yl) nicotinonitrile trifluoroacetate salt]
>7.4 | > 7.30 |  |  | Cc1ccnc(N2CC[C@H]([C@H](CC#N)n3cc(-c4ncnc5[nH]ccc45)cn3)C2)c1C#N [Example 100, 2-((S)-3-((S)-1-(4-(7H-pyrrolo[2,3-d]pyrimidin-4-yl)-1H-pyrazol-1-yl)-2-cyanoethyl)pyrrolidin-1-yl)-4-methylnicotinonitrile trifluoroacetate]
5.2 | 7.00 to 7.30 |  |  | CS(=O)(=O)c1cccc(N2CCC(C(CC#N)n3cc(-c4ncnc5[nH]ccc45)cn3)C2)n1 (single isomer, unassigned) [Example 26, 3-{1-[6-(methylsulfonyl)pyridin-2-yl]pyrrolidin-3-yl}-3-[4-(7H-pyrrolo[2,3-d]pyrimidin-4-yl)-1H-pyrazol-1-yl]propanenitrile]
 |  | 3 | > 7.30 | N#CCC(C1CCN(c2cncc(Cl)n2)C1)n1cc(-c2ncnc3[nH]ccc23)cn1 (single isomer, unassigned) [1 (rac)]
4.4 | > 7.30 |  |  | N#Cc1cccc(N2CC[C@H](C(CF)n3cc(-c4ncnc5[nH]ccc45)cn3)C2)c1C#N (stereo partly drawn) [Example 121, 3-((3S)-3-{2-fluoro-1-[4-(7H-pyrrolo[2,3-d]pyrimidin-4-yl)-1H-pyrazol-1-yl]ethyl}pyrrolidin-1-yl)phthalonitrile trifluoroacetate]
22.8 | > 7.30 |  |  | N#CC[C@@H]([C@H]1CCN(c2nccc(C(F)F)c2C#N)C1)n1cc(-c2ncnc3[nH]ccc23)cn1 [Example 103, 2-((3S)-3-{(1S)-2-cyano-1-[4-(7H-pyrrolo[2,3-d]pyrimidin-4-yl)-1H-pyrazol-1-yl]ethyl}pyrrolidin-1-yl)-4-(difluoromethyl)nicotinonitrile bis(trifluoroacetate)]
3.7 | > 7.30 |  |  | N#Cc1ncccc1N1CC[C@H](C(CF)n2cc(-c3ncnc4[nH]ccc34)cn2)C1 (stereo partly drawn) [Example 117, 3-((3S)-3-{2-fluoro-1-[4-(7H-pyrrolo[2,3-d]pyrimidin-4-yl)-1H-pyrazol-1-yl]ethyl}pyrrolidin-1-yl)pyridine-2-carbonitrile trifluoroacetate]
188.0 | > 7.30 |  |  | N#CC[C@@H]([C@H]1CCN(c2nccc(I)c2C#N)C1)n1cc(-c2ncnc3[nH]ccc23)cn1 [Example 122, 2-((3S)-3-{(1S)-2-cyano-1-[4-(7H-pyrrolo[2,3-d]pyrimidin-4-yl)-1H-pyrazol-1-yl]ethyl}pyrrolidin-1-yl)-4-iodonicotinonitrile trifluoroacetate]
6.9 | > 7.30 |  |  | N#CC[C@@H]([C@H]1CCN(c2nc(Cl)c(N)cc2F)C1)n1cc(-c2ncnc3[nH]ccc23)cn1 [Example 91A, (S)-3-(4-(7H-pyrrolo[2,3-d]pyrimidin-4-yl)-1H-pyrazol-1-yl)-3-((S)-1-(5-amino-6-chloro-3-fluoropyridin-2-yl)pyrrolidin-3-yl)propanenitrile bis(trifluoroacetate)]
7.6 | > 7.30 |  |  | CCCS(=O)(=O)c1ccc(F)c(N2CC[C@H]([C@H](CC#N)n3cc(-c4ncnc5[nH]ccc45)cn3)C2)n1 [Example 99, trifluoroacetate]
>11.1 | > 7.30 |  |  | CN(C)C(=O)c1cc(N2CCC(C(CC#N)n3cc(-c4ncnc5[nH]ccc45)cn3)C2)ccn1 (single isomer, unassigned) [Example 153, 4-(3-{2-cyano-1-[4-(7H-pyrrolo[2,3-d]pyrimidin-4-yl)-1H-pyrazol-1-yl]ethyl}pyrrolidin-1-yl)-N,N-dimethylpyridine-2-carboxamide]
6.7 | > 7.30 |  |  | N#CC[C@@H]([C@H]1CCN(c2ncsc2C#N)C1)n1cc(-c2ncnc3[nH]ccc23)cn1 [Example 82, 4-(3-{2-cyano-1-[4-(7H-pyrrolo[2,3-d]pyrimidin-4-yl)-1H-pyrazol-1-yl]ethyl}pyrrolidin-1-yl)-1,3-thiazole-5-carbonitrile]
7.6 | > 7.30 |  |  | O=S1(=O)CCc2ccc(N3CC[C@H](C(CF)n4cc(-c5ncnc6[nH]ccc56)cn4)C3)nc21 (stereo partly drawn) [Example 119, 4-(1-{1-[(3S)-1-(1,1-dioxido-2,3-dihydrothieno[2,3-b]pyridin-6-yl)pyrrolidin-3-yl]-2-fluoroethyl}-1H-pyrazol-4-yl)-7H-pyrrolo[2,3-d]pyrimidine trifluoroacetate]
14 | > 7.30 |  |  | CS(=O)(=O)c1cc(N2CCC(C(CC#N)n3cc(-c4ncnc5[nH]ccc45)cn3)C2)ccn1 (single isomer, unassigned) [Example 27, 3-{1-[2-(methylsulfonyl)pyridin-4-yl]pyrrolidin-3-yl}-3-[4-(7H-pyrrolo[2,3-d]pyrimidin-4-yl)-1H-pyrazol-1-yl]propanenitrile]
5.9 | > 7.30 |  |  | N#Cc1ncsc1N1CC[C@H](C(CF)n2cc(-c3ncnc4[nH]ccc34)cn2)C1 (stereo partly drawn) [Example 126, 5-((3S)-3-{2-fluoro-1-[4-(7H-pyrrolo[2,3-d]pyrimidin-4-yl)-1H-pyrazol-1-yl]ethyl}pyrrolidin-1-yl)-1,3-thiazole-4-carbonitrile trifluoroacetate]
9.4 | > 7.30 |  |  | N#CC[C@@H]([C@H]1CCN(c2c(F)nc(F)c(F)c2C#N)C1)n1cc(-c2ncnc3[nH]ccc23)cn1 [Example 65, 3-((3S)-3-{(1S)-2-cyano-1-[4-(7H-pyrrolo[2,3-d]pyrimidin-4-yl)-1H-pyrazol-1-yl]ethyl}pyrrolidin-1-yl)-2,5,6-trifluoroisonicotinonitrile trifluoroacetate salt]
15.4 | > 7.30 |  |  | N#CCC(C1CCN(c2ncc3ccsc3c2C#N)C1)n1cc(-c2ncnc3[nH]ccc23)cn1 (single isomer, unassigned) [Example 175, 6-(3-{2-cyano-1-[4-(7H-pyrrolo[2,3-d]pyrimidin-4-yl)-1H-pyrazol-1-yl]ethyl}pyrrolidin-1-yl)thieno[3,2-c]pyridine-7-carbonitrile]
8.1 | > 7.30 |  |  | N#CCC(C1CCN(c2scc(C#N)c2C#N)C1)n1ccc(-c2ncnc3[nH]ccc23)c1 (single isomer, unassigned) [81 enantiomer 2]
12.5 | > 7.30 |  |  | CN(C)S(=O)(=O)Nc1nccc(N2CCC(C(CC#N)n3cc(-c4ncnc5[nH]ccc45)cn3)C2)n1 (single isomer, unassigned) [Example 151, N-[4-(3-{2-cyano-1-[4-(7H-pyrrolo[2,3-d]pyrimidin-4-yl)-1H-pyrazol-1-yl]ethyl}pyrrolidin-1-yl)pyrimidin-2-yl]-N,N-dimethylsulfonamide]
9.9 | > 7.30 |  |  | N#CCC(C1CCN(c2scnc2C#N)C1)n1ccc(-c2ncnc3[nH]ccc23)c1 (racemic) [Example 149-1, 5-(3-{2-cyano-1-[3-(7H-pyrrolo[2,3-d]pyrimidin-4-yl)-1H-pyrrol-1-yl]ethyl}pyrrolidin-1-yl)-1,3-thiazole-4-carbonitrile]
